PMC9695592, “Phenotypic Evaluation of Nucleoside Analogues against Trypanosoma cruzi Infection: In Vitro and In Vivo Approaches” (Molecules, 2022)
Like-named read-outs stand apart in the source and are kept apart here.

Tests used:
[1] = tested on: promastigotes of LmexCas9; assay: Resazurin-based assay on LmexCas9 promastigotes; format: cell-based, Leishmania mexicana
Protocol: (§1) Bloodstream trypomastigotes of the Y strain (DTU II) were obtained by cardiac puncture of infected Swiss Webster mice on the parasitemia peak to perform drug sensitivity assays. Trypomastigote forms of the Tulahuen-β gal strain were collected from the supernatant of previously infected L929 cell cultures (host/parasite cell ratio 10:1). The intracellular forms T. cruzi were studied by the infection of L929 and H9C2 (2D and 3D) cell cultures infected for 48 and 24 h with trypomastigotes of Tulahuen-β gal and Y strains, respectively. The Leishmania mexicana-Cas9 T7 strain (LmexCas9) was derived from L. mexicana WT promastigotes by expression of the Streptococcus pyogenes Cas9 nuclease gene ‘Cas9′ and maintained on 32 μg/mL hygromycin [51]. This strain and the derived strains Cas9^ΔNT1 and Cas9^ΔNT1+TcrNT2 were cultured in HOMEM medium supplemented with 10% of FBS and 1% Penicillin-Streptomycin antibiotic in unvented flasks at 25 °C [52]. The Cas9^ΔNT1 strain is identical to Cas9 except that the LmexNT1.1/NT1.2 locus encoding the L. mexicana adenosine/ pyrimidine transporters was excised using Cas9 [17, 40]. Cas9^ΔNT1+TcrNT2 is the further modification of that strain by the expression of the T. cruzi nucleoside transporter 2 (TcrNT2) gene in it, using the vector pNUS-HcN [53]. Appropriate antibiotics were added for the selection and maintenance of transfectants.
(§2) The EC50 values for nucleoside analogues against Leishmania mexicana promastigotes of the Cas9, Cas9^ΔNT1 and Cas9^ΔNT1+TcrNT2 strains used a resazurin-based assay, as described. Briefly, the assays were performed in standard HOMEM medium and culture conditions, in white opaque 96-well plates. For each test compound (stored as a 40 mM stock solution in 100% DMSO at −20 °C), a doubling dilution was performed over 2 rows of the plate, keeping the last well free as no-drug control with HOMEM only (23 doubling dilutions; highest concentration 100 µM). To each well, 100 µL of HOMEM containing 2 × 10^5 cells of the appropriate L. mexicana line was added, and the plates incubated for 72 h at 25 °C, followed by the addition of 20 µL of resazurin solution and further incubation for 48 h. Fluorescence was read on a FLUOstar OPTIMA plate reader (BMG Labtech, Germany), at an excitation wavelength of 544 nm and an emission wavelength of 620 nm. The EC50 values were determined by the GraphPad Prism 8.0 software using an equation for a sigmoid curve with variable slope. Pentamidine was used as positive control, and every experiment was independently performed at least 3 times independently.

[2] = tested on: promastigotes of Cas9^ΔNT1; assay: Resazurin-based assay on Cas9^ΔNT1 promastigotes; format: cell-based, Leishmania mexicana; conditions: Leishmania mexicana, read-out: Cas9^ΔNT1 EC50 (μM), promastigotes, resazurin-based assay, highest concentration 100 µM
Protocol: as §1, §2

[3] = tested on: promastigotes of Lmex^ΔNT1+TcrNT2; assay: Resazurin-based assay on Cas9^ΔNT1+TcrNT2 promastigotes; format: cell-based, Leishmania mexicana; conditions: for EC50: Leishmania mexicana, read-out: Lmex^ΔNT1+TcrNT2 EC50 (μM); for Lmex^ΔNT1+TcrNT2 Sensitization (fold): ratio of the EC50 values of the Cas9^ΔNT1 and Cas9^ΔNT1+TcrNT2 strains
Protocol: as §1, §2

LmexNT1 = LmexNT1 (Leishmania mexicana, UniProt E9AQB5); assay: Inhibition of [3H]-adenosine uptake by LmexNT1.1 expressed in L. mexicana promastigotes; format: biochemical
Protocol: Figure 2 Uptake of 50 nM [^3H]-adenosine by LmexNT1.1 expressed in L. mexicana promastigotes from which both original alleles of LmexNT1.1/NT1.2 and of LmexNT2 had been deleted by CRISPR/cas9. Incubation time was 10 s, well within the linear phase of uptake. Symbols represent averages of triplicate determinations, and error bars indicate ± SEM when not shown error bars fall within the symbol. The graph shown is a single experiment in triplicate, representative of three identical, independent repeats.
Uptake of 50 nM 2,8-^3H-adenosine (American Radiolabelled Chemicals (ART0287A), 40 Ci/ mmol) was exactly measured, exactly as described. Briefly, promastigotes were washed into the standard assay buffer (AB) by centrifugation, and aliquots of 100 µL containing 10^7 parasites were incubated with the radiolabel on top of an oil layer in a microfuge tube, for exactly 5 s. The incubation was stopped by the addition of 800 µL of ice-cold 1 mM adenosine in AB and immediate centrifugation through the oil layer to separate cells from the remaining extracellular radiolabel. Cell pellets were collected in scintillation vials after flash freezing in liquid nitrogen, by cutting of the tip of the microfuge tube. The promastigotes were then solubilised in 1% SDS, and scintillation fluid was added (Scintlogic U, Lablogic), and radioactivity was quantified in a Hidex 300SL scintillation counter (Lablogic). Data was plotted using non-linear regression with an equation for a sigmoid curve with a variable slope in Prism v8 (GraphPad).

H9C2 2D cultures = assay: Cardiotoxicity on H9C2 monolayers (2D), PrestoBlue; format: cell-based; conditions: Rattus norvegicus, 168 h; 2D H9C2, seven days of compound incubation; 95% confidence interval in brackets; read-out: Cardiotoxic profile IC50 (µM) 2D
Description: (§3) L929 cell lines were used to evaluate the effect of the nucleoside derivatives on the cellular viability of mammalian host cells and to assess their activity against intracellular forms of T. cruzi (Tulahuen strain expressing E. coli β-galactosidase gene, DTU VI) as reported. 2D and 3D culture systems of rat cardiomyoblast cell lines (H9C2(2-1)) were used to evaluate cardiotoxicity and to test the derivatives’ activity on intracellular forms (Y strain, DTU II). In all assays, the cell cultures were maintained at 37 °C under an atmosphere of 5% CO2.
L929 cells seeded in sterile 96-well microtiter plates were exposed or not to increasing concentrations (up to 200 µM) of the compounds. […] Cellular viability was assessed through AlamarBlue® (resazurin sodium salt) colorimetric assay, and the results were expressed as % reduction in cell growth/viability compared to untreated control, and an IC50 value determined. For the assays using H9C2 cultures, 25 × 10^3 cells/well were seeded in a 96-well microtiter plates (flat and U bottoms, precoated with agarose 1% for preparing 2- and 3D matrices, respectively) and maintained at 37 °C [48, 54].
[…] Cell viability was measured using the PrestoBlue® (PB) colorimetric assay, the results evaluated as % reduction in cell growth/viability compared to untreated control, and an IC50 value determined. The data results from at least two independent experiments done in at least duplicates.

H9C2 3D cultures = assay: Cardiotoxicity on H9C2 organoids (3D), PrestoBlue; format: cell-based, rat; conditions: Rattus norvegicus, H9c2, 168 h, 3D H9C2, seven days of compound incubation; 95% confidence interval in brackets; read-out: Cardiotoxic profile IC50 (µM) 3D
Description: as §3
L929 cells seeded in sterile 96-well microtiter plates were exposed or not to increasing concentrations (up to 200 µM) of the compounds. After seven days of incubation, the cell growth of treated cultures was compared to untreated control cells (100% cell growth). Cellular viability was assessed through AlamarBlue® (resazurin sodium salt) colorimetric assay, and the results were expressed as % reduction in cell growth/viability compared to untreated control, and an IC50 value determined. For the assays using H9C2 cultures, 25 × 10^3 cells/well were seeded in a 96-well microtiter plates (flat and U bottoms, precoated with agarose 1% for preparing 2- and 3D matrices, respectively) and maintained at 37 °C [48, 54].
The cardiac cultures were exposed or not to increasing concentrations of the nucleoside derivatives (up to 300 µM), and after seven days of incubation, their physiology and morphology was evaluated by light microscopy. Cell viability was measured using the PrestoBlue® (PB) colorimetric assay, the results evaluated as % reduction in cell growth/viability compared to untreated control, and an IC50 value determined. The data results from at least two independent experiments done in at least duplicates.

[4] = Leishmania mexicana, read-out: Cas9 EC50 (μM), promastigotes, resazurin-based assay, highest concentration 100 µM

LmexNT1, sequence (E9AQB5 entry or part of it): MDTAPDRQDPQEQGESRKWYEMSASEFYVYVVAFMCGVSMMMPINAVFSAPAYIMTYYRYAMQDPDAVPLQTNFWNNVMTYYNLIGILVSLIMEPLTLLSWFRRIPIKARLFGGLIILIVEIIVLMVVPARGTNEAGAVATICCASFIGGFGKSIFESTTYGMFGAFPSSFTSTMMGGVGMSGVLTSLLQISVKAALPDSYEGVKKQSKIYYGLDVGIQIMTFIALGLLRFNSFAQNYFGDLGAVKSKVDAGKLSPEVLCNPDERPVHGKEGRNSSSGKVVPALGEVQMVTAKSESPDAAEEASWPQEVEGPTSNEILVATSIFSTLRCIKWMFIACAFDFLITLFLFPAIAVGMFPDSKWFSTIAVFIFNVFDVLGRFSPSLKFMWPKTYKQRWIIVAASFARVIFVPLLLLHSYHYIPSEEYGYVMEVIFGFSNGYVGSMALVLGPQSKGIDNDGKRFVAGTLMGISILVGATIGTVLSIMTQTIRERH

Structure (SMILES)	EC50 [1, 4] [µM]	EC50 ([1]; read-out: Cas9 EC50, promastigotes, resazurin-based assay, highest concentration 100 µM) [µM]	EC50 [2] [µM]	EC50 [3] [µM]	Lmex^ΔNT1+TcrNT2 Sensitization (fold) [3] [fold]	Ki (LmexNT1) [µM]	IC50 (H9C2 2D cultures) [µM]	IC50 (H9C2 3D cultures) [µM]
Nc1ncnc2c1c(-c1ccc(Cl)c(Cl)c1)cn2[C@@H]1O[C@H](CO)[C@@H](O)[C@H]1O [FH3147, 7-(3,4-dichlorophenyl)tubercidin]	8.4 ± 1.6	8.41 ± 1.61	> 100	13.7 ± 1.25	–	–	–	–
Nc1ncnc2c1c(-c1ccccc1)cn2[C@@H]1O[C@H](CO)[C@@H](O)[C@H]1O [TH1004]	37 ± 0.23	–	138 ± 10	101 ± 0.5	1.37	3.8 ± 0.3	–	–
N=C(N)c1ccc(OCCCCCOc2ccc(C(=N)N)cc2)cc1 [Pentamidine, reference compound]	0.87 ± 0.1	–	1.25 ± 0.22	1.12 ± 0.17	1.11	–	46	> 200
Nc1ncnc2c1ccn2[C@@H]1O[C@H](CO)[C@@H](O)[C@H]1O [Tubercidin, reference compound]	1.02 ± 0.16	–	25.7 ± 0.94	–	–	5.8 ± 0.6	–	–
Nc1ncnc2c1c(Cl)cn2[C@@H]1O[C@H](CO)[C@@H](O)[C@H]1O [FH3169]	0.24 ± 0.06	–	2 ± 0.19	0.32 ± 0.05	6.3	2.8 ± 0.2	–	–
Nc1ncnc2c1c(-c1ccc(Cl)cc1)cn2[C@@H]1O[C@H](CO)[C@@H](O)[C@H]1O [TH1012]	52.5 ± 0.3	–	280 ± 18	96.6 ± 0.3	2.9	–	–	–
